Source: article PMC4145316, “Cytotoxic and Apoptosis-Inducing Activity of Triterpene Glycosides from Holothuria scabra and Cucumaria frondosa against HepG2 Cells” (Marine Drugs, 2014)
In brackets after ≈: the same amount, converted by molar mass.

Assays:
[1] = test system: human leukemia (K562) cells; assay: MTT cytotoxicity assay, K562 cells; assay type: cell-based; conditions: for IC50 (μg/mL) K562: means ± SD (n = 3); for IC50: Homo sapiens, K562, means ± SD (n = 3), read-out: IC50 (μg/mL) K562
Protocol: (§1) Human hepatoma (HepG2), human cervical cancer (HeLa), human leukemia (K562) and human liver (HL-7702) cells were obtained by Shanghai Institute of Biochemistry and Cell Biology, and maintained in the logarithmic phase of growth in RPMI-1640 complete medium supplemented with 2 mM L-glutamine (Sigma Chemical Co., Saint Louis, MO, USA), 100 IU/mL penicillin, 100 μg/mL streptomycin and 10% FCS at 37 °C under humidified air with 5% CO2.
(§2) The effect of compounds 1–13 on the viability of HepG2, HeLa, K562 and HL-7702 cells was determined by MIT assay as described previously. Briefly, the tumor and normal cells were seeded at 1 × 10^4 cells/well in a 96-well microtiter plate and incubated at 37 °C in a humidified atmosphere with 5% CO2. After 24 h, compounds 1–13, the positive drug CDDP or RPMI-1640 medium were added into each well, and the plates were incubated at 37 °C for the indicated time. Each concentration was repeated four wells. 50 μL of MTT solution (2 mg/mL) was added to each well 4 h before incubation end, and incubated further for 4 h. The plates were centrifuged (1400× g, 5 min) and the untransformed MTT was removed carefully by pipetting. To each well, 150 μL of DMSO was added and the absorbance was evaluated in an ELISA reader at 570 nm after 15 min. The inhibitory rates and 50% inhibitory concentrations (IC50) values towards cell viability were calculated by NDST software. Each test was performed in triplicate.

[2] = test system: human hepatoma (HepG2) cells; assay: MTT cytotoxicity assay, HepG2 cells; assay type: cell-based; conditions: for IC50 (μg/mL) HepG2: means ± SD (n = 3); for IC50: Homo sapiens, HepG2, means ± SD (n = 3), read-out: IC50 (μg/mL) HepG2
Protocol: as §1, §2

[3] = test system: human liver (HL-7702) cells; assay: MTT cytotoxicity assay, normal HL-7702 cells; assay type: cell-based; conditions: for IC50 (μg/mL) HL-7702 / IC50: MTT assay, normal hepatocytes, means ± SD (n = 3); for Ratio (HL-7702/HepG2): ratio of IC50 values against HL-7702 and HepG2 cells, selective cytotoxicity; for IC50: Homo sapiens, L02, read-out: IC50 (μg/mL) HL-7702
Protocol: as §1, §2

[4] = test system: human cervical cancer (HeLa) cells; assay: MTT cytotoxicity assay, HeLa cells; assay type: cell-based; conditions: means ± SD (n = 3); for IC50: Homo sapiens, HeLa, read-out: IC50 (μg/mL) HeLa
Protocol: as §1, §2

[5] = test system: human gastric cancer MKN-45 cells; conditions: read-out: IC50 against MKN-45 cells; cited from earlier work
HeLa cells = test system: HeLa cells; parameters: method as in PMID 18288810; conditions: cited from earlier work

Compound	IC50 (μg/mL) K562 [1] [µg/mL]	IC50 (μg/mL) HepG2 [2] [µg/mL]	IC50 (μg/mL) HL-7702 [3] [µg/mL]	Ratio (HL-7702/HepG2) [3]	IC50 (μg/mL) HeLa [4] [µg/mL]	Ratio (HL-7702/HepG2) ([3]; listed as 10)	IC50 [5] [nM]	IC50 [1] [µg/mL]	IC50 [2] [µg/mL]	IC50 [3] [µg/mL]	IC50 [4] [µg/mL]	IC50 against HeLa cells (HeLa cells) [µg/mL]
24-Dehydro frondoside A6 [24-Dehydro frondoside A6 (13)]	5.61 ± 1.05	3.57 ± 0.54	7.55 ± 0.83	2.12	3.16 ± 0.34	–	–	–	–	–	–	–
CO[C@@H]1[C@@H](O)[C@H](O[C@@H]2[C@@H](O)[C@H](O[C@H]3[C@H](O)[C@@H](O)[C@H](O[C@H]4[C@H](O[C@H]5CC[C@]6(C)C7=C[C@H](O)[C@]89C(=O)O[C@@](C)(C(O)CCC(C)C)[C@@]8(O)CC[C@@]9(C)[C@@H]7CC[C@H]6C5(C)C)OC[C@@H](OS(=O)(=O)[O-])[C@@H]4O)O[C@@H]3C)O[C@H](CO)[C@H]2O)O[C@H](CO)[C@H]1O.[Na+] (stereo partly drawn) [Holothurin A1 (7), Holothurin A1]	6.50 ± 0.01	2.90 ± 0.21	3.59 ± 0.05	1.24	2.84 ± 0.09	–	–	–	–	–	–	–
Scabraside B [Scabraside B (9)]	11.85 ± 2.26	7.29 ± 0.62	11.03 ± 1.37	1.51	4.44 ± 0.85	–	–	–	–	–	–	–
Scabraside D [Scabraside D (8)]	10.06 ± 1.06	3.33 ± 0.33	4.40 ± 0.22	1.32	3.84 ± 0.42	–	–	–	–	–	–	–
CO[C@@H]1[C@@H](O)[C@H](CO)O[C@@H](O[C@H]2[C@@H](O)[C@@H](O[C@H]3[C@@H](O)[C@@H](O[C@H]4OC[C@@H](O)[C@@H](O)[C@@H]4O)[C@H](O[C@H]4[C@H](O[C@H]5CC[C@@]6(C)[C@H](CC=C7[C@@H]6CC[C@]68C(=O)O[C@](C)(CCCC(C)C)[C@H]6[C@H](OC(C)=O)C[C@@]78C)C5(C)C)OC[C@@H](OS(=O)(=O)O)[C@H]4O)O[C@@H]3C)OC[C@@H]2O)[C@@H]1O [Frondoside A1 (10), Frondoside A1]	2.21 ± 0.56 (≈ 1.68 µM)	1.91 ± 0.03 (≈ 1.45 µM)	4.96 ± 1.10 (≈ 3.78 µM)	2.60	2.03 ± 0.17 (≈ 1.55 µM)	more than 2	–	–	–	–	–	–
C[C@H]1O[C@@H](O[C@H]2[C@H](O[C@H]3CC[C@]4(C)C5=C[C@H](O)C67C(=O)O[C@@](C)(C8CCC(C)(C)O8)[C@@]6(O)CC[C@@]7(C)[C@@H]5CCC4C3(C)C)OC[C@@H](OS(=O)(=O)[O-])[C@@H]2O)[C@H](O)[C@@H](O)[C@@H]1O.[Na+] (stereo partly drawn) [Holothurin B (3), Holothurin B]	3.64 ± 0.04	1.79 ± 0.02	2.69 ± 0.45	1.50	2.05 ± 0.11	–	1590	–	–	–	–	–
Frondoside A6 [Frondoside A6 (12)]	6.59 ± 0.11	2.53 ± 0.66	6.05 ± 0.67	2.39	3.75 ± 0.51	–	–	–	–	–	–	–
CO[C@@H]1[C@@H](O)[C@H](O[C@@H]2[C@@H](O)[C@H](O[C@H]3[C@H](O)[C@@H](O[C@@H]4OC[C@@H](O)[C@H](O)[C@H]4O)[C@H](O[C@H]4[C@H](OC5CC[C@]6(C)[C@H]7CCC89C(=O)O[C@@](C)(CCCC(C)C)C8[C@@H](OC(C)=O)C[C@@]9(C)C7=CC[C@H]6C5(C)C)OC[C@@H](OS(=O)(=O)O)[C@@H]4O)O[C@@H]3C)OC[C@H]2O)O[C@H](CO)[C@H]1O (stereo partly drawn) [Frondoside A (11), Frondoside A]	–	–	–	1.31	–	–	–	3.76 ± 0.05 (≈ 2.86 µM)	4.14 ± 0.57 (≈ 3.15 µM)	5.42 ± 0.98 (≈ 4.13 µM)	3.3 ± 0.05 (≈ 2.51 µM)	–
HS-1 [HS-1 (5)]	12.95 ± 1.54	6.10 ± 0.33	7.19 ± 0.20	1.18	3.20 ± 0.32	–	–	–	–	–	–	–
CC(C)CCC[C@]1(C)OC(=O)C23[C@@H](O)C=C4[C@@H](CC[C@H]5C(C)(C)C(O[C@@H]6OC[C@@H](OS(=O)(=O)O)[C@H](O)[C@H]6O[C@@H]6O[C@H](C)[C@@H](O)[C@H](O)[C@H]6O)CC[C@]45C)[C@]2(C)CC[C@@]31O (stereo partly drawn) [echinoside B, reference compound]	–	–	–	–	–	–	180	–	–	–	–	–
okhotosides B3	–	–	–	–	–	–	–	–	–	–	–	17.8
CO[C@@H]1[C@@H](O)[C@H](O[C@@H]2[C@@H](O)[C@H](O[C@H]3[C@H](O)[C@@H](O)[C@H](O[C@H]4[C@H](O[C@H]5CC[C@]6(C)C7=C[C@H](O)[C@@]89C(=O)O[C@@](C)(C%10CCC(C)(C)O%10)[C@@]8(O)CC[C@@]9(C)[C@@H]7CC[C@H]6C5(C)C)OC[C@@H](OS(=O)(=O)O)[C@@H]4O)O[C@@H]3C)O[C@H](CO)[C@H]2O)O[C@H](CO)[C@H]1O (stereo partly drawn) [Holothurin A (6), Holothurin A]	–	–	–	1.11	–	–	2370	8.94 ± 0.01 (≈ 7.45 µM)	3.46 ± 0.33 (≈ 2.88 µM)	3.85 ± 0.32 (≈ 3.21 µM)	3.76 ± 0.47 (≈ 3.14 µM)	–
okhotosides B2	–	–	–	–	–	–	–	–	–	–	–	13.0
N.N.[Cl][Pt][Cl] [CDDP, cis-diamminedichloroplatinum, reference compound]	2.99 ± 0.24	2.05 ± 0.13	4.48 ± 0.41	2.18	3.41 ± 0.37	–	–	–	–	–	–	–
CO[C@@H]1[C@@H](O)[C@H](O[C@@H]2[C@@H](O)[C@H](O[C@H]3[C@H](O)[C@@H](O)[C@H](O[C@H]4[C@H](O[C@H]5CC[C@]6(C)C7=C[C@H](O)C89C(=O)O[C@@](C)(CCC=C(C)C)[C@@]8(O)CC[C@@]9(C)C7CCC6C5(C)C)OC[C@@H](OS(=O)(=O)[O-])[C@@H]4O)O[C@@H]3C)O[C@H](CO)[C@H]2O)O[C@H](CO)[C@H]1O.[Na+] (stereo partly drawn) [24-Dehydro echinoside A (2), 24-Dehydro echinoside A]	6.15 ± 0.24	1.95 ± 0.09	3.75 ± 0.40	1.92	2.06 ± 0.27	–	1600	–	–	–	–	–
Holothurin B4 [Holothurin B4 (4)]	3.55 ± 0.53	2.71 ± 0.12	4.58 ± 0.54	1.69	2.71 ± 0.54	–	–	–	–	–	–	–
